Test results as given in the NIST ThermoML archive (doi:10.1016/j.jct.2006.07.022).
Numbers after ± are expanded uncertainties.

Experiment: xn = mol fraction of the nth substance listed
Settings: 101 kPa, Liquid

CCc1ccccc1 [ethylbenzene] + CN(C)C=O
Settings | mass density [kg/m3]
293.15 K, x1 = 0.0514 | 942.69 ± 0.26
293.15 K, x1 = 0.1124 | 936.07 ± 0.28
293.15 K, x1 = 0.1754 | 929.58 ± 0.29
293.15 K, x1 = 0.2451 | 922.8 ± 0.31
293.15 K, x1 = 0.3102 | 916.81 ± 0.33
293.15 K, x1 = 0.3754 | 911.11 ± 0.34
293.15 K, x1 = 0.4514 | 904.81 ± 0.36
293.15 K, x1 = 0.5214 | 899.3 ± 0.37
293.15 K, x1 = 0.5862 | 894.43 ± 0.39
293.15 K, x1 = 0.6478 | 890 ± 0.4
293.15 K, x1 = 0.7012 | 886.28 ± 0.41
293.15 K, x1 = 0.7658 | 881.94 ± 0.43
293.15 K, x1 = 0.8214 | 878.33 ± 0.44
293.15 K, x1 = 0.8845 | 874.33 ± 0.45
293.15 K, x1 = 0.9451 | 870.6 ± 0.47
293.15 K, x1 = 1 | 867.28 ± 0.48
303.15 K, x1 = 0.0562 | 933.08 ± 0.28
303.15 K, x1 = 0.1141 | 926.82 ± 0.29
303.15 K, x1 = 0.1865 | 919.45 ± 0.31
303.15 K, x1 = 0.2451 | 913.8 ± 0.32
303.15 K, x1 = 0.3065 | 908.15 ± 0.34
303.15 K, x1 = 0.375 | 902.18 ± 0.35
303.15 K, x1 = 0.4354 | 897.14 ± 0.37
303.15 K, x1 = 0.4952 | 892.39 ± 0.38
303.15 K, x1 = 0.5685 | 886.81 ± 0.4
303.15 K, x1 = 0.6284 | 882.45 ± 0.41
303.15 K, x1 = 0.7025 | 877.28 ± 0.43
303.15 K, x1 = 0.7654 | 873.05 ± 0.44
303.15 K, x1 = 0.8251 | 869.17 ± 0.45
303.15 K, x1 = 0.8821 | 865.57 ± 0.47
303.15 K, x1 = 0.9422 | 861.86 ± 0.48
303.15 K, x1 = 1 | 858.36 ± 0.49
313.15 K, x1 = 0.0684 | 922.45 ± 0.29
313.15 K, x1 = 0.1151 | 917.46 ± 0.31
313.15 K, x1 = 0.1855 | 910.34 ± 0.32
313.15 K, x1 = 0.2525 | 903.93 ± 0.34
313.15 K, x1 = 0.3101 | 898.69 ± 0.35
313.15 K, x1 = 0.3852 | 892.2 ± 0.37
313.15 K, x1 = 0.4421 | 887.51 ± 0.38
313.15 K, x1 = 0.5012 | 882.85 ± 0.39
313.15 K, x1 = 0.5688 | 877.74 ± 0.41
313.15 K, x1 = 0.6211 | 873.93 ± 0.42
313.15 K, x1 = 0.6855 | 869.42 ± 0.43
313.15 K, x1 = 0.7451 | 865.39 ± 0.45
313.15 K, x1 = 0.8021 | 861.65 ± 0.46
313.15 K, x1 = 0.8654 | 857.62 ± 0.47
313.15 K, x1 = 0.9325 | 853.47 ± 0.49
313.15 K, x1 = 1 | 849.38 ± 0.5
323.15 K, x1 = 0.0463 | 915.35 ± 0.3
323.15 K, x1 = 0.1125 | 908.29 ± 0.32
323.15 K, x1 = 0.1785 | 901.64 ± 0.33
323.15 K, x1 = 0.2462 | 895.17 ± 0.35
323.15 K, x1 = 0.312 | 889.22 ± 0.36
323.15 K, x1 = 0.3745 | 883.85 ± 0.38
323.15 K, x1 = 0.4352 | 878.85 ± 0.39
323.15 K, x1 = 0.4952 | 874.12 ± 0.41
323.15 K, x1 = 0.5552 | 869.58 ± 0.42
323.15 K, x1 = 0.6125 | 865.41 ± 0.43
323.15 K, x1 = 0.6784 | 860.79 ± 0.45
323.15 K, x1 = 0.7451 | 856.29 ± 0.46
323.15 K, x1 = 0.8021 | 852.57 ± 0.47
323.15 K, x1 = 0.8666 | 848.48 ± 0.49
323.15 K, x1 = 0.9451 | 843.65 ± 0.5
323.15 K, x1 = 1 | 840.35 ± 0.51
333.15 K, x1 = 0.0548 | 904.7 ± 0.32
333.15 K, x1 = 0.1241 | 897.45 ± 0.34
333.15 K, x1 = 0.1852 | 891.41 ± 0.35
333.15 K, x1 = 0.2451 | 885.77 ± 0.36
333.15 K, x1 = 0.3021 | 880.64 ± 0.38
333.15 K, x1 = 0.3625 | 875.45 ± 0.39
333.15 K, x1 = 0.4255 | 870.27 ± 0.4
333.15 K, x1 = 0.4954 | 864.79 ± 0.42
333.15 K, x1 = 0.5621 | 859.79 ± 0.43
333.15 K, x1 = 0.6215 | 855.53 ± 0.45
333.15 K, x1 = 0.6865 | 851.02 ± 0.46
333.15 K, x1 = 0.7451 | 847.11 ± 0.47
333.15 K, x1 = 0.8002 | 843.53 ± 0.48
333.15 K, x1 = 0.8621 | 839.62 ± 0.5
333.15 K, x1 = 0.9351 | 835.15 ± 0.51
333.15 K, x1 = 1 | 831.25 ± 0.52
343.15 K, x1 = 0.0689 | 893.27 ± 0.34
343.15 K, x1 = 0.132 | 886.83 ± 0.35
343.15 K, x1 = 0.1952 | 880.71 ± 0.37
343.15 K, x1 = 0.2621 | 874.55 ± 0.38
343.15 K, x1 = 0.3262 | 868.95 ± 0.4
343.15 K, x1 = 0.3865 | 863.91 ± 0.41
343.15 K, x1 = 0.4461 | 859.15 ± 0.42
343.15 K, x1 = 0.5121 | 854.09 ± 0.44
343.15 K, x1 = 0.5685 | 849.94 ± 0.45
343.15 K, x1 = 0.6332 | 845.36 ± 0.46
343.15 K, x1 = 0.7095 | 840.17 ± 0.48
343.15 K, x1 = 0.7651 | 836.53 ± 0.49
343.15 K, x1 = 0.8221 | 832.9 ± 0.5
343.15 K, x1 = 0.8858 | 828.96 ± 0.51
343.15 K, x1 = 0.9514 | 824.99 ± 0.53
343.15 K, x1 = 1 | 822.11 ± 0.54
353.15 K, x1 = 0.0458 | 885.55 ± 0.35
353.15 K, x1 = 0.1112 | 878.86 ± 0.36
353.15 K, x1 = 0.1784 | 872.35 ± 0.38
353.15 K, x1 = 0.2351 | 867.13 ± 0.39
353.15 K, x1 = 0.2965 | 861.72 ± 0.4
353.15 K, x1 = 0.3589 | 856.48 ± 0.42
353.15 K, x1 = 0.4152 | 851.94 ± 0.43
353.15 K, x1 = 0.4784 | 847.06 ± 0.44
353.15 K, x1 = 0.5321 | 843.06 ± 0.45
353.15 K, x1 = 0.5962 | 838.48 ± 0.47
353.15 K, x1 = 0.6748 | 833.09 ± 0.48
353.15 K, x1 = 0.7451 | 828.47 ± 0.5
353.15 K, x1 = 0.8032 | 824.77 ± 0.51
353.15 K, x1 = 0.8745 | 820.37 ± 0.52
353.15 K, x1 = 0.9548 | 815.56 ± 0.54
353.15 K, x1 = 1 | 812.9 ± 0.55
